Reference: patent US11938121B2, “Treatment of infections and biofilm formation using a cellulose synthase inhibitor” (Purdue Research Foundation, priority 2020, dated 2024)

Experiments:
[1] = test system: AtCESA6 carrying missense mutations in prc1-1; conditions: Huang et al., 2020; cited from earlier work
[2] = test system: Rhodobacter sphaeroidesin; test: Rhodobacter sphaeroidesin growth in overnight culture; format: cell-based, Rhodobacter sphaeroides; conditions: vs DMSO control media
Description: To test the effect of Endosidin20/Cellulosin in bacterial cell growth, we first grew Rhodobacter sphaeroidesin in the presence of Ensodin20/Cellulosin.

maize (Zea mays) = test: Maize seedling root growth; format: in vivo; conditions: 20 μM, 6-day-old seedlings
Description: (§1) ES20 has broad spectrum inhibitory effect on the growth of both dicotyledonous and monocotyledonous plants (Huang and Zhang, Plant Signal Behav. 2020, 15, 1780039). We tested whether ES20-1 has stronger inhibitory effect on the growth of monocotyledon plants than ES20. We grew rice (Oryza sativa) and maize (Zea mays) seedlings on the same concentrations of ES20 and ES20-1 and compared their effects on growth.

GFP-CESA6c^P595S = target: T1, GFP-CESA6c^P595S (Arabidopsis thaliana, UniProt Q94JQ6, P595S); test: MST assay with GFP-CESA6c^P595S; format: binding
T1 construct: We purified AtCESA6 central cytoplasmic domain carrying missense mutation P595S (CESA6c^P595S); made in house; host or cells: E. coli (inferred from the wild-type CESA6c construct that served as template)
Description: (§2) To obtain the central cytosolic domain of AtCESA6 for the MST assay, we inserted the GFP coding sequence into the SacI and PstI restriction enzyme sites of the pRSF-Duet-1 vector (Huang et al., 2020). The GFP coding sequence was amplified from the pUBN-GFP-DEST vector. The sequence encoding the central cytosolic domain of CESA6 (CESA6c) was amplified from Col-0 cDNA and fused with GFP at the C-terminus. CESA6c construct was used as a template for creating CESA6c^P595S construct by site-directed mutagenesis. Protein purification was performed as previously described (Huang et al., 2020).
(§3) MST assays were carried out using a Monolith NT.115 (NanoTemper) machine at the Chemical Genomics Facility at Purdue University. […] The ES20-1 was dissolved in DMSO, and the final concentration of DMSO was 5% (vol/vol). MST standard capillaries were used to load the samples into the MST instrument. Triplicate reactions were performed for each test. The MST data were processed using MO. Affinity Analysis Version 2.3 software.

Arabidopsis Col-0 [3] = conditions: 1 μM; cited from earlier work
Arabidopsis Col-0 [4] = test: Crystalline cellulose content measurement of cell wall; format: in vivo, Arabidopsis thaliana; conditions: 1 μM, 7-day-old dark-grown seedlings
Description: Arabidopsis Col-0 seeds were sown on growth medium supplemented with 0.1% DMSO, 1 μM ES20, or different concentrations of ES20 analogs. […] Cellulose extraction and measurement were performed as previously described (Huang et al., 2020).

rice (Oryza sativa) = test: Rice seedling root growth; format: in vivo; conditions: 20 μM, 6-day-old seedlings
Description: as §1

[5] = test system: AtCESA6 (cesa6 alleles es20r1-es20r15); conditions: Huang et al., 2020; cited from earlier work
[6] = target: T2, YFP-AtCESA6 cellulose synthase complexes (CSCs) in root epidermal cells (Arabidopsis thaliana, UniProt Q94JQ6); conditions: Huang et al., 2020; cited from earlier work
T2 construct: expressed in transfected cells; host or cells: transgenic Arabidopsis thaliana YFP-AtCESA6 seedlings (total protein extract for DARTS; root epidermal cells for imaging)

Komagataeibacter xylinus [7] = test: K. xylinus cellulose production in liquid culture; format: cell-based; conditions: 20 μM
Description: We next grew K. xylinus cells in growth medium supplemented with DMSO, ES20, or ES20-1 under agitation. […] We also grew K. xylinus in liquid medium supplemented with DMSO, ES20, or ES20-1 under static cultivation conditions. Without agitation, pellicles containing cellulose often form at the air-liquid interface. […] To quantify the effects of ES20 and ES20-1 on cellulose production, we harvested the pellicles from these cultures and isolated cellulose from the pellicles.
(§4) Komagataeibacter xylinus (previously named Gluconacetobacter xylinus) ATCC strain 700178 was obtained from ATCC (Manassas, Va., USA) to evaluate cellulose production. HS (Hestrin and Schramm) medium was used for culture; HS liquid medium contains 2.0% glucose (w/v), 0.5% yeast extract (w/v), 0.5% peptone (w/v), 0.27% Na2HPO4 (w/v), and 0.15% citric acid (w/v), pH 5.0, and HS solid medium was solidified with 1.8% agar (w/v). To prepare the initial inoculation source, a single K. xylinus colony grown on HS solid medium was transferred to HS liquid medium and cultured at 26° C. for 5 days under static conditions. We used cells from the bottom of the liquid culture as the initial inoculation source to avoid biofilm aggregates at the air-liquid interface. To test the effect of ES20 and ES20-1 on the bacteria growth, initial inoculation source was series diluted and 20 μL culture from each diluted solution was dropped on HS solid medium supplemented with DMSO (0.1%) or different concentrations of ES20 and ES20-1 and cultured at 26° C. for 6 days after the dropped culture was completely dry. To test the effects of ES20 and ES20-1 on cellulose production, the prepared inoculation source was inoculated at a dilution ratio of 1:1000 dilution in HS liquid medium supplemented with 0.1% DMSO or 20 μM of ES20 or ES20-1. Static cultivation was carried out in a 26° C. incubator, and agitated cultivation was carried out at 26° C. with shaking at 220 rpm. To isolate cellulose from pellicles, the pellicles were removed from liquid culture, washed several times with deionized water, and soaked in 0.1 M NaOH at 80° C. for 2 h. The pellicles were washed several times with deionized water to completely remove the alkali. The purified cellulose was dried at 60° C. for ˜1 day until a constant dry mass was reached.

Komagataeibacter xylinus [8] = test: K. xylinus cell growth on HS solid medium; format: cell-based; conditions: 6 days
Description: Based on primary protein sequence analysis and a comparison of three-dimensional protein structures, the catalytic sites of cellulose synthases are highly conserved across kingdoms (Huang et al., 2020, Purushotham et al., 2020). The amino acids that are directly involved in glucan chain initiation, elongation, and translocation are conserved between plant and bacterial cellulose synthases (Huang et al., 2020). Based on the conservation of catalytic sites in cellulose synthases, we hypothesized that ES20 and ES20-1 would inhibit bacterial cellulose biosynthesis as well. We chose to test the effects of ES20 and ES20-1 on cell growth and cellulose production in Komagataeibacter xylinus (K. xylinus, previously known as Gluconacetobacter xylinus) because this bacterium produces abundant cellulose. We first tested whether ES20 and ES20-1 affect K. xylinus cell growth. We grew K. xylinus cells in liquid […] (HS) medium and then we inoculated 20 μL of series diluted culture to HS solid growth medium supplemented with DMSO (0.1%) or different concentrations of ES20 and ES20-1. […] We found ES20 and ES20-1 affect K. xylinus colony morphology as well. […] Wrinkles radiating structure is often observed in cellulose-producing bacteria strains and this structure is often affected when cellulose biosynthesis is disrupted.
as §4, with “To isolate cellulose from pellicles, the pellicles were removed from liquid culture, washed several times with deionized water, and soaked in 0.1 M NaOH at 80° C. for 2 h. The pellicles were washed several times with deionized water to completely remove the alkali. The purified cellulose was dried at 60° C. for ˜1 day until a constant dry mass was reached.” left out

[9] = target: T3, GFP-CESA6c (central cytosolic domain of AtCESA6) (Arabidopsis thaliana, UniProt Q94JQ6); test: MST assay with GFP-CESA6c; format: binding; conditions: 100 nM GFP-CESA6c
T3 construct: made in house; host or cells: E. coli
Description: as §2, §3

[10] = 5 days static cultivation, vs DMSO

Question: Which “sensitivity of transgenic plants with AtCESA6 catalytic site mutations to ES20” value [1] does the source give for `COc1ccc(C(=O)NC(=S)NNC(=O)c2ccccc2C)cc1` [ES20, Endosidin20] here?
Answer: also had reduced sensitivity

Question: And the “growth of Rhodobacter sphaeroidesin” value [2]?
Answer: significantly slower

Question: And the “maize root growth inhibition” value (maize (Zea mays))?
Answer: could inhibit the root growth

Question: What about the “interaction with CESA6c^P595S” value (GFP-CESA6c^P595S) of the same compound?
Answer: interacts

Question: What about the “inhibition of Arabidopsis thaliana root growth” value (Arabidopsis Col-0 [3]) of the same compound?
Answer: more than 50%

Question: And the “crystalline cellulose content in hypocotyl cell wall” value (Arabidopsis Col-0 [4]; mean±SD, n=3)?
Answer: 109 ± 4 µg/mg

Question: And the “reduction of crystalline cellulose levels in the hypocotyl” value (Arabidopsis Col-0 [4]; vs DMSO)?
Answer: approximately 35%

Question: What about the “rice root growth inhibition” value (rice (Oryza sativa)) of the same compound?
Answer: could inhibit the root growth

Question: What about the “sensitivity of es20r1-es20r15 mutants to ES20” value [5] of the same compound?
Answer: reduced sensitivity

Question: What about the “effect on CSC motility, density and localization” value [6] of the same compound?
Answer: reduces the motility and density of CSCs at the PM and induces their accumulation at the SmaCCs and Golgi

Question: And the “effect on delivery rate of CSCs to PM” value [6]?
Answer: reduced the delivery rate of CSCs to PM

Question: What about the “size of cellulose clusters” value (Komagataeibacter xylinus [7]; 5 days agitated cultivation, vs DMSO) of the same compound?
Answer: smaller

Question: And the “dry mass of cellulose from pellicles” value (Komagataeibacter xylinus [7]; 5 days static cultivation, mean±SD, n=9)?
Answer: 268 ± 139 mg/L

Question: And the “decrease of dry mass of cellulose from pellicles” value (Komagataeibacter xylinus [7]; [10])?
Answer: ~45%

Question: What about the pellicle thickness (Komagataeibacter xylinus [7]; [10]) of the same compound?
Answer: pellicles in cultures containing DMSO are thicker

Question: What about the “K. xylinus cell growth inhibition” value (Komagataeibacter xylinus [8]; 20 μM and 50 μM) of the same compound?
Answer: inhibit K. xylinus cell growth at both 20 μM and 50 μM concentrations

Question: What about the “K. xylinus colony morphology (wrinkles radiating structures)” value (Komagataeibacter xylinus [8]; 20 μM) of the same compound?
Answer: the wrinkles are not obvious

Question: What about the “interaction with CESA6c” value [9] of the same compound?
Answer: interacted
